Results reported in patent US20020164348A1 (priority 2000, published 2002).

Columns and labels:
poliovirus polymerase = poliovirus polymerase (Poliovirus type 1, UniProt P03300)
rhinovirus polymerase = rhinovirus polymerase (Human rhinovirus 14, UniProt P03303); assay type: biochemical
[1] = molecular target: T1, pJG-poliovirus 3D prey fusion (pJGPolio3D) (poliovirus Mahoney type 1, UniProt P03300 1749-2209); experiment: yeast two-hybrid, colour on X-gal plates (- white); bait in row, prey in column
T1 sequence: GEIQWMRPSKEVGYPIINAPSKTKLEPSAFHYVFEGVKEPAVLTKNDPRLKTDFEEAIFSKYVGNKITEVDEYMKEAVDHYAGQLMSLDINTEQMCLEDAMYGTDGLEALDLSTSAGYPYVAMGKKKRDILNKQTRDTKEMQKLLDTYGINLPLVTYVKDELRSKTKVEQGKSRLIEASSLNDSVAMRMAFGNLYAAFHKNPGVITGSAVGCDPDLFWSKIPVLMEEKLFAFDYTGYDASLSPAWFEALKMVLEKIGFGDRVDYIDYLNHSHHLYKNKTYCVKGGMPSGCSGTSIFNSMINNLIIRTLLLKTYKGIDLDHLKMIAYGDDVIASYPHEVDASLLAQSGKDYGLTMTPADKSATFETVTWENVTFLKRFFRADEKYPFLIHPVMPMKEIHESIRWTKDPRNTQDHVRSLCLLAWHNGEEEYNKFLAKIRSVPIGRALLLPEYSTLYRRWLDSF

[2] = molecular target: poliovirus RNA-dependent RNA polymerase 3Dpol WT (Poliovirus type 1 (Mahoney), UniProt P03300 P03300:1749-2209); experiment: filter; conditions: tags: none stated, expressed in E. coli BL21(DE3) pLysS, N-terminal Met removed; label: 32P (alpha-32P CTP, T7 transcript); 20 bp blunt self-complementary duplex

rhinovirus polymerase, sequence (P03303 1720-2179 limits assumed): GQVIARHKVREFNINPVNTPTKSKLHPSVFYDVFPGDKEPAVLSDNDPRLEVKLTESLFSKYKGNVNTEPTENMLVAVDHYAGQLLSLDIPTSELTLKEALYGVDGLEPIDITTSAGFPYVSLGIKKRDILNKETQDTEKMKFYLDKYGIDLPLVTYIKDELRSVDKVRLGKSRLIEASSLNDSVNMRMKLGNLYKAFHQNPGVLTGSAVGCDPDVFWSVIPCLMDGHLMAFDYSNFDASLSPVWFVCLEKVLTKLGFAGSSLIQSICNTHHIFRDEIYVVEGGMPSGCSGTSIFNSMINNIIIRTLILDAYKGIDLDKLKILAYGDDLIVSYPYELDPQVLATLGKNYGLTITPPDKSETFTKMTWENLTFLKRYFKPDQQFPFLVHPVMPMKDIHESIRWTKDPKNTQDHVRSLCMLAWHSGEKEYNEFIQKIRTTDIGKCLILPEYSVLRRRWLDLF

## [Cl-].[Cl-].[Zn+2] [ZnCl2]
Poliovirus polymerase
  effect on decrease in specific activity with decreasing polymerase concentration: nearly eliminates the decrease in specific activity

## KPHKCTFEGCRKSYSRSTNLRRHLNSH (SEQ ID NO:5) [Peptide 1]
Rhinovirus polymerase
  activity of the rhinovirus polymerase: inhibits

B1: Lex202 vector control (bait vector without a polymerase) (other)
chain: MKALTARQQEVFDLIRDHISQTGMPPTRAEIAQRLGFRSPNAAEEHLKALARKGVIEIVSGASRGIRLLQEEEEGLPLVGRVAAGEPLLAQQHIEGHYQVDPSLFKPNADFLLRVSGMSMKDIGIMDGDLLAVHKTQDVRNGQVVVARIDDEVTVKRLKKQGNKVELLPENSEFKPIVVDLRQQSFTIEGLAVGVIRNGDWL
[1]
  binding result: no binding

B2: 0.20 RNA (dsRNA)
RNA 1: GGCAGCUGCAUGCAGCUGCC
RNA 2: GGCAGCUGCAUGCAGCUGCC
[2]
  binding result: binds
